Reference: patent US5391486A, “Physiologically active substance BE-16627” (Banyu Pharmaceutical Co., Ltd., priority 1989, dated 1995)

Columns and labels:
Stromelysin = molecular target: T1, Stromelysin (Homo sapiens, UniProt P08254); experiment: Stromelysin inhibition in vitro (substrate A: 3H casein); type: biochemical, Human (Recombinant); settings: for inhibition of stromelysin (human) relative to other enzymes: in words, from Table 1, next collagenase and thermolysin; for IC50: stromelysin, human recombinant, substrate A (3H casein)
T1 construct: prostromelysin prepared by genetic engineering (Celltech., GB) was used by treating it with trypsin; purchased Celltech., GB
Protocol: (§1) As stromelysin (human), prostromelysin prepared by genetic engineering (Celltech., GB) was used by treating it with trypsin (10 μg/ml) at 37° C. for 10 minutes and inhibiting a residual trypsin activity with soybean trypsin inhibitor (50 μg/ml).
(§2) Substrate A: ^3 Hcasein

Collagenase = Collagenase inhibition in vitro (substrate A: 3H casein); type: biochemical; settings: Chlostridium histriticum
Protocol: as §1, with “An inhibitory activity of BE-16627A and B to various proteases including stromelysin and collagenase was determined by an in-vitro test. As” for “As”
as §2

Thermolysin = Thermolysin (Bacillus thermoproteolyticus, UniProt P00800); experiment: Thermolysin inhibition in vitro (substrate A: 3H casein); type: biochemical, Bacillus thermo-proteolyticus
Protocol: as §1, with “An inhibitory activity of BE-16627A and B to various proteases including stromelysin and collagenase was determined by an in-vitro test. As” for “As”
as §2

Trypsin = molecular target: T2, Trypsin (Bos taurus, UniProt P00760); experiment: Trypsin inhibition in vitro (substrate A: 3H casein); type: biochemical; settings: bovine
T2 sequence (P00760 24-246): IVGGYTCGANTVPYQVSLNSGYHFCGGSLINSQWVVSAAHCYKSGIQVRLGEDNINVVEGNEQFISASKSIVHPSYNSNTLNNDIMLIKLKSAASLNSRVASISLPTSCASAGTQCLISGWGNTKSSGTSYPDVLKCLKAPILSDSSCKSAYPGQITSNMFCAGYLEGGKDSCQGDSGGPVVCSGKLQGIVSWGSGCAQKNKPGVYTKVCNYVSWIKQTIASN
Protocol: as §1, with “An inhibitory activity of BE-16627A and B to various proteases including stromelysin and collagenase was determined by an in-vitro test. As” for “As”
as §2

Chymotrypsin = Chymotrypsin (Bos taurus, UniProt P00766); experiment: Chymotrypsin inhibition in vitro (substrate A: 3H casein); type: biochemical; settings: bovine
Protocol: as §1, with “An inhibitory activity of BE-16627A and B to various proteases including stromelysin and collagenase was determined by an in-vitro test. As” for “As”
as §2

Elastase = Elastase (Sus scrofa, UniProt P00772); experiment: Elastase inhibition in vitro (substrate B: Succinylalanyl-prolyl-alanyl-methylcumarylamide); type: biochemical; settings: porcine
Protocol: as §1, with “An inhibitory activity of BE-16627A and B to various proteases including stromelysin and collagenase was determined by an in-vitro test. As” for “As”
Substrate B: Succinylalanyl-prolyl-alanyl-methylcumarylamide

Papain = molecular target: T3, Papain (Carica papaya, UniProt P00784); experiment: Papain inhibition in vitro (substrate A: 3H casein); type: biochemical; settings: papaya latex
T3 construct: from tissue; host or cells: Papaya latex
T3 sequence (P00784 134-345): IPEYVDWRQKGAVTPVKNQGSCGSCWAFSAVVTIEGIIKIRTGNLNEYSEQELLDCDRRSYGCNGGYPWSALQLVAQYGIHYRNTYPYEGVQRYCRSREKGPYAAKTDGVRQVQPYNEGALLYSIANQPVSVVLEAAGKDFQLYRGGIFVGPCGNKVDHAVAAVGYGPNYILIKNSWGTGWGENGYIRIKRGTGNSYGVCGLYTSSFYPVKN
Protocol: as §1, with “An inhibitory activity of BE-16627A and B to various proteases including stromelysin and collagenase was determined by an in-vitro test. As” for “As”
as §2

Pepsin = Pepsin (Sus scrofa, UniProt P00791); experiment: Pepsin inhibition in vitro (substrate A: 3H casein); type: biochemical; settings: porcine
Protocol: as §1, with “An inhibitory activity of BE-16627A and B to various proteases including stromelysin and collagenase was determined by an in-vitro test. As” for “As”
as §2

[1] = tested on: mouse cultured cancer cells (P388); experiment: cells; type: cell-based
Solubility = type: physicochemical
metal enzymes = experiment: Inhibitory activity to various proteases (metal enzymes versus others); type: biochemical; settings: in words, from Table 1
Protocol: as §1, with “An inhibitory activity of BE-16627A and B to various proteases including stromelysin and collagenase was determined by an in-vitro test. As” for “As”

[2] = in an organic solvent such as chloroform, ethyl acetate, benzene, hexane and the like

T1 sequence (P08254 100-477): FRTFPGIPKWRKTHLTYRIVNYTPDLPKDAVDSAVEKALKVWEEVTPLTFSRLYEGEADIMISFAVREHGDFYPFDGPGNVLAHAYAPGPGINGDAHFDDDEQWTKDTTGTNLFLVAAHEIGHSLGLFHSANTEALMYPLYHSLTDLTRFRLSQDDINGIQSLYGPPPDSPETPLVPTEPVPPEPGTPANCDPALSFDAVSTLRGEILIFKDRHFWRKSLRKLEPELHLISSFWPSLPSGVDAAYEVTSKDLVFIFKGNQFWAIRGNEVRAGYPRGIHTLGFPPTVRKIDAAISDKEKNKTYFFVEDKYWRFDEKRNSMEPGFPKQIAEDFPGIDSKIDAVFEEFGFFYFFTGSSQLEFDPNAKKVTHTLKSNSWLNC
Sequence of Elastase (P00772 27-266): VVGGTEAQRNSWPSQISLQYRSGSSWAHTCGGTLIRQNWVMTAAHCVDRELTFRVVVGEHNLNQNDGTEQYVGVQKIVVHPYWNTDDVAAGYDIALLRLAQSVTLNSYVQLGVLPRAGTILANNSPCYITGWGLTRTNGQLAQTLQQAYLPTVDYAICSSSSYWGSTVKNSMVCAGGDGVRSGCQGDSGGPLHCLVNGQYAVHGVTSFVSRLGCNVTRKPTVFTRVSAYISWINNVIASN
Sequence of Pepsin (P00791 60-385): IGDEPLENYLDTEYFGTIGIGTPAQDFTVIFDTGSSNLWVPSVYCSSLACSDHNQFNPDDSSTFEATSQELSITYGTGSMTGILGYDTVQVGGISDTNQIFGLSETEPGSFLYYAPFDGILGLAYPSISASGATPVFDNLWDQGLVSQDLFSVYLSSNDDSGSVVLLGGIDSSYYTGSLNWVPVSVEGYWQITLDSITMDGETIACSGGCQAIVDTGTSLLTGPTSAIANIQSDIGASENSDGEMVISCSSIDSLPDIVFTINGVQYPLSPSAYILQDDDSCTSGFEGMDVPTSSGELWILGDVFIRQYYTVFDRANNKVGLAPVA
Sequence of Thermolysin (P00800 233-548): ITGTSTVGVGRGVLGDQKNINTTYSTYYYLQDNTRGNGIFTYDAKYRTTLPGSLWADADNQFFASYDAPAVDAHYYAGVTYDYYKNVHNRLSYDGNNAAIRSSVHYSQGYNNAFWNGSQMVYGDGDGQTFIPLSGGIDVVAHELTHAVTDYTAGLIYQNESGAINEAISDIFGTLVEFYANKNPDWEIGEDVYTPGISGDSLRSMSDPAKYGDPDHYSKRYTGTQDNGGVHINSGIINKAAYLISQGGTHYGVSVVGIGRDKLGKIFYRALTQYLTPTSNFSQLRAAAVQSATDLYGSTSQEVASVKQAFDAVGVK

Structure (SMILES) | inhibition of stromelysin (human) relative to other enzymes (Stromelysin) | IC50 (Stromelysin) | IC50 (Collagenase) | IC50 (Thermolysin) | IC50 (Trypsin) | IC50 (Chymotrypsin) | IC50 (Elastase) | IC50 (Papain) | IC50 (Pepsin) | cytotoxicity [1] | IC50 ([1]; Mus musculus, P388, read-out: IC50 value (cytotoxic test)) | Solubility (Solubility; in an alkaline water) | Solubility (Solubility; [2]) | inhibition of the activity of metal enzymes (metal enzymes)
CCCC(CC(=O)NO)C(=O)NC(CO)C(=O)NC(C(=O)O)C(C)C (stereo not drawn) [BE-16627A] | most strongly inhibited | 5 µM | 11.6 µM | 19.3 µM | > 276 µM | > 276 µM | > 276 µM | 138 µM | > 276 µM | low cytotoxicity | ≥ 100 µg/mL | readily soluble | almost insoluble | specifically inhibited
CC(C)CC(CC(=O)NO)C(=O)NC(CO)C(=O)NC(C(=O)O)C(C)C (stereo not drawn) [BE-16627B] | most strongly inhibited | 0.58 µM | 2.7 µM | 2.4 µM | > 266 µM | > 266 µM | > 266 µM | > 266 µM | > 266 µM | low cytotoxicity | – | readily soluble | almost insoluble | specifically inhibited
